Patent US11434246B2, “EP4 antagonists” (Eisai R&D Management Co., Ltd., priority 2015, dated 2022)

Target: EP4 (Homo sapiens, UniProt P35408)
Assay: EP4 Antagonism by CRE-PLAP Reporter Assay (SE302 cells, PGE2-stimulated)
Format: cell-based
Design: HEK293 cells express endogenous EP4; endogenous in cells; host or cells: SE302 (HEK293 clone with CRE-PLAP reporter)
Conditions: SE302 (HEK293) cells, 3 ng/mL PGE2, overnight; single or multiple assay average values
Text: PGE2 and [^3H]-labelled PGE2 were purchased from Cayman Chemical (Ann Arbor, Mich.) and Perkin Elmer (Waltham, Mass.), respectively. Mouse breast 4T1 cells (CRL-2539) were obtained from American Tissue Culture Collection. SE302 cell line is a clone of the HEK293 cells containing cAMP response element (CRE) promoter that when activated drives secretion of placental-like alkaline phosphatase (PLAP). HEK293 cells express endogenous EP4 and show induction of PLAP in response to PGE2 and EP4 agonists, but not EP1, 2 or 3 agonists (Chen Q, Muramoto K, Masaaki N, Ding Y, Yang H, Mackey M, Li W, Inoue Y, Ackermann K, Shrota H, Matsumoto I, Spyvee M, Schiller S, Sumida T, Gusovsky F, and Lamphier M. A novel antagonist of the prostaglandin E2 EP4 receptor inhibits Th1 differentiation and Th17 expansion and is orally active in arthritis models. British J Pharmacol, 2010, 160: 292-310). BalB/C female mice at 7-8 week age were purchased from Jackson Laboratory (Bar Harbor, Me.). Mice were maintained under specific pathogen-free conditions.
EP4 Antagonism by CRE-PLAP Reporter Assay: SE302 cells were maintained in DMEM/F12 (50:50) (MediaTech) supplemented with 10% FBS (Tissue Culture Biologicals) plus penicillin/streptomycin. When used for assays, cells were plated in a 96-well plate at 2×10^4 cells/100 μL/well in serum-free assay medium (DMEM/F12 supplemented with 0.1% BSA plus penicillin/streptomycin) and incubated for 4-6 h. Cells were then stimulated with 3 ng/mL of PGE2 in the presence or absence of various concentrations of test compound overnight, and PLAP activity was measured by mixing 15 μL of culture supernatants with 75 μL of Lumi-phos (Lumigen, Inc.) and 60 μL of assay buffer containing 8 mmol/L MgSO4 in 0.1 mol/L carbonate-bicarbonate buffer pH11 in a new 96-well black plate and incubated for 2 h at room temperature. The intensity of luminescence, which reflected the PLAP activity in the supernatant, was quantified with an Envision 2101 Multilabel Reader. Values obtained from DMSO treated samples in the presence of PGE2 were defined as 100% of control, whereas values obtained from DMSO treated samples in the absence of PGE2 were defined as 0% of control. % of control for compound treated samples was calculated as follows: (actual reading−0% of control)/(100% of control−0% of control)×100. IC50 value for each individual experiment was calculated using GraphPad Prism 6.02 (Lake Forest, Calif.) with % of control values.
Compounds of the present invention were assayed according to the methods as described above, and IC50 values, which may be single assay values or multiple assay average values, are summarized in Table 1. Compounds marked “ABS” show absolute stereochemistry.

EP4, sequence (P35408 whole entry): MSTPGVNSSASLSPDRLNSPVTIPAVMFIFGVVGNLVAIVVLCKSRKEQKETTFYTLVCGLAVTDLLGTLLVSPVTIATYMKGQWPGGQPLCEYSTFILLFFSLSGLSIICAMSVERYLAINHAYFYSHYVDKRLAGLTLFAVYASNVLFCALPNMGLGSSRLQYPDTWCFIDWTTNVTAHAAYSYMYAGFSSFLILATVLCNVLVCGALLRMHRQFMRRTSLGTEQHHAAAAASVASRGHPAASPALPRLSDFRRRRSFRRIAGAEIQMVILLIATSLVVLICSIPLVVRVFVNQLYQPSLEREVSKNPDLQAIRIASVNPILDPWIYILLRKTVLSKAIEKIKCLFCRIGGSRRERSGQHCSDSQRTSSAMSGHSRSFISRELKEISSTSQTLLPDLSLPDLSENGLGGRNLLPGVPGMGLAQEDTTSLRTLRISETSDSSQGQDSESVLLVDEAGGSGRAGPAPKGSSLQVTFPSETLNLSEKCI

| Compound | IC50 [nM] |
| --- | --- |
| C[C@H](NC(=O)c1c(C(F)(F)F)nn2c1N(Cc1cccc(C(F)(F)F)c1)CC2)c1ccc(C(=O)O)cc1F [Compound 23, (S)-3-fluoro-4-(1-(6-(trifluoromethyl)-1-(3-(trifluoromethyl)benzyl)-2,3-dihydro-1H-imidazo[1,2-b]pyrazole-7-carboxamido)ethyl)benzoic Acid] | 0.41 |
| COC(=O)c1ccc([C@H](C)NC(=O)c2c(C(F)(F)F)nn3c2N(Cc2cccc(C(F)(F)F)c2)CC3)cc1F [Compound 24, Methyl (S)-2-fluoro-4-(1-(6-(trifluoromethyl)-1-(3-(trifluoromethyl)benzyl)-2,3-dihydro-1H-imidazo[1,2-b]pyrazole-7-carboxamido)ethyl)benzoate] | 8.2 |
| C[C@H](NC(=O)c1c(C(F)(F)F)nn2c1N(Cc1cccc(C(F)(F)F)c1)CC2)c1ccc(C(=O)O)c(F)c1 [Compound 25, (S)-2-fluoro-4-(1-(6-(trifluoromethyl)-1-(3-(trifluoromethyl)benzyl)-2,3-dihydro-1H-imidazo[1,2-b]pyrazole-7-carboxamido)ethyl)benzoic acid] | 1.1 |
| C[C@H](NC(=O)c1c(C(F)(F)F)nn2c1N(Cc1cccc(C(F)(F)F)c1)CC2)c1ccc(CC(=O)O)cc1 [Compound 26, (S)-2-(4-(1-(6-(trifluoromethyl)-1-(3-(trifluoromethyl)benzyl)-2,3-dihydro-1H-imidazo[1,2-b]pyrazole-7-carboxamido)ethyl)phenyl)acetic Acid] | 3.54 |
| C[C@H](NC(=O)c1c(C(F)(F)F)nn2c1N(Cc1ccc(C(F)(F)F)cc1)CC2)c1ccc(CC(=O)O)cc1 [Compound 27, (S)-2-(4-(1-(6-(trifluoromethyl)-1-(4-(trifluoromethyl)benzyl)-2,3-dihydro-1H-imidazo[1,2-b]pyrazole-7-carboxamido)ethyl)phenyl)acetic Acid] | 7.08 |
| Cc1nn2c(c1C(=O)NC1(c3ccc(C(=O)O)cc3)CC1)N(Cc1ccc(C(F)(F)F)cc1)CC2 [Compound 28, 4-(1-(6-methyl-1-(4-(trifluoromethyl)benzyl)-2,3-dihydro-1H-imidazo[1,2-b]pyrazole-7-carboxamido)cyclopropyl)benzoic Acid] | 8.68 |
| O=C(O)c1ccc(C2(NC(=O)c3c(C(F)(F)F)nn4c3N(Cc3ccc(C(F)(F)F)cc3)CC4)CC2)cc1 [Compound 29, 4-(1-(6-(trifluoromethyl)-1-(4-(trifluoromethyl)benzyl)-2,3-dihydro-1H-imidazo[1,2-b]pyrazole-7-carboxamido)cyclopropyl)benzoic Acid] | 2.19 |
| O=C(O)c1ccc(C2(NC(=O)c3c(C(F)(F)F)nn4c3N(Cc3ccc(Cl)cc3)CC4)CC2)cc1 [Compound 30, 4-(1-(1-(4-chlorobenzyl)-6-(trifluoromethyl)-2,3-dihydro-1H-imidazo[1,2-b]pyrazole-7-carboxamido)cyclopropyl)benzoic Acid] | 1.35 |
| C[C@H](NC(=O)c1c(C(F)(F)F)nn2c1N(Cc1ccc(Cl)cc1)CC2)c1ccc(C(=O)O)cc1 [Compound 31, (S)-4-(1-(1-(4-chlorobenzyl)-6-(trifluoromethyl)-2,3-dihydro-1H-imidazo[1,2-b]pyrazole-7-carboxamido)ethyl)benzoic Acid] | 0.99 |
| Cc1nn2c(c1C(=O)N[C@@H](C)c1ccc(C(=O)O)cc1)N(Cc1ccc(Cl)cc1)CC2 [Compound 32, (S)-4-(1-(1-(4-chlorobenzyl)-6-methyl-2,3-dihydro-1H-imidazo[1,2-b]pyrazole-7-carboxamido)ethyl)benzoic Acid] | 4.23 |
| Cc1nn2c(c1C(=O)NCc1ccc(C(=O)O)cc1)N(Cc1ccc(Cl)cc1)CC2 [Compound 33, 4-((1-(4-chlorobenzyl)-6-methyl-2,3-dihydro-1H-imidazo[1,2-b]pyrazole-7-carboxamido)methyl)benzoic Acid] | 27.6 |
| Cc1nn2c(c1C(=O)NC1(c3ccc(C(=O)O)cc3)CC1)N([C@H](C)c1ccc(C(F)(F)F)cc1)CC2 [Compound 34, (R)-4-(1-(6-methyl-1-(1-(4-(trifluoromethyl)phenyl)ethyl)-2,3-dihydro-1H-imidazo[1,2-b]pyrazole-7-carboxamido)cyclopropyl)benzoic Acid] | 9.19 |
| Cc1nn2c(c1C(=O)N[C@@H](C)c1ccc(C(=O)O)cc1)N([C@H](C)c1ccc(C(F)(F)F)cc1)CC2 [Compound 35, 4-((S)-1-(6-methyl-1-((R)-1-(4-(trifluoromethyl)phenyl)ethyl)-2,3-dihydro-1H-imidazo[1,2-b]pyrazole-7-carboxamido)ethyl)benzoic Acid] | 11.1 |
| C[C@H](NC(=O)c1c(C(F)(F)F)nn2c1N(Cc1cccc(C(F)(F)F)c1)CC2)c1ccc(-c2nn[nH]n2)cc1 [Compound 36, (S)—N-(1-(4-(2H-tetrazol-5-yl)phenyl)ethyl)-6-(trifluoromethyl)-1-(3-(trifluoromethyl)benzyl)-2,3-dihydro-1H-imidazo[1,2-b]pyrazole-7-carboxamide] | 0.31 |
| C[C@H](NC(=O)c1c(C(F)(F)F)nn2c1N(Cc1ccc(C(F)(F)F)cc1)CC2)c1ccc(-c2nn[nH]n2)cc1 [Compound 37, (S)—N-(1-(4-(2H-tetrazol-5-yl)phenyl)ethyl)-6-(trifluoromethyl)-1-(4-(trifluoromethyl)benzyl)-2,3-dihydro-1H-imidazo[1,2-b]pyrazole-7-carboxamide] | 0.45 |
| C[C@H](NC(=O)c1c(C(F)(F)F)nn2c1N(Cc1cccc(C(F)(F)F)c1)CC2)c1ccc(C(=O)O)nc1 [Compound 38, (S)-5-(1-(6-(trifluoromethyl)-1-(3-(trifluoromethyl)benzyl)-2,3-dihydro-1H-imidazo[1,2-b]pyrazole-7-carboxamido)ethyl)picolinic Acid] | 17.1 |
| C[C@H](NC(=O)c1c(C(F)(F)F)nn2c1N(Cc1cccc(C(F)(F)F)c1)CC2)c1ccc(C(=O)O)cn1 [Compound 39, (S)-6-(1-(6-(trifluoromethyl)-1-(3-(trifluoromethyl)benzyl)-2,3-dihydro-1H-imidazo[1,2-b]pyrazole-7-carboxamido)ethyl)nicotinic Acid] | 4.73 |
| C[C@H](NC(=O)c1c(C(F)(F)F)nn2c1N(Cc1ccc(C(F)(F)F)cc1)CC2)c1ccc(-c2ccoc2)cc1 [Compound 40, (S)—N-(1-(4-(furan-3-yl)phenyl)ethyl)-6-(trifluoromethyl)-1-(4-(trifluoromethyl)benzyl)-2,3-dihydro-1H-imidazo[1,2-b]pyrazole-7-carboxamide] | 150 |
| C[C@H](NC(=O)c1c(C(F)(F)F)nn2c1N(Cc1ccc(Cl)cc1)CCC2)c1ccc(C(=O)O)cc1 [Compound 41, (S)-4-(1-(4-(4-chlorobenzyl)-2-(trifluoromethyl)-4,5,6,7-tetrahydropyrazolo[1,5-a]pyrimidine-3-carboxamido)ethyl)benzoic Acid] | 1.53 |
| C[C@H](NC(=O)c1c(C(F)(F)F)nn2c1N(Cc1cccc(Cl)c1)CCC2)c1ccc(C(=O)O)cc1 [Compound 42, (S)-4-(1-(4-(3-chlorobenzyl)-2-(trifluoromethyl)-4,5,6,7-tetrahydropyrazolo[1,5-a]pyrimidine-3-carboxamido)ethyl)benzoic Acid] | 13.6 |
| C[C@H](NC(=O)c1c(C(F)(F)F)nn2c1N(Cc1ccccc1Cl)CC2)c1ccc(C(=O)O)cc1 [Compound 43, (S)-4-(1-(1-(2-chlorobenzyl)-6-(trifluoromethyl)-2,3-dihydro-1H-imidazo[1,2-b]pyrazole-7-carboxamido)ethyl)benzoic Acid] | 4.17 |
| C[C@H](NC(=O)c1c(C(F)(F)F)nn2c1N(Cc1cccc(C(F)(F)F)c1)CCC2)c1ccc(C(=O)O)cc1 [Compound 44, (S)-4-(1-(2-(trifluoromethyl)-4-(3-(trifluoromethyl)benzyl)-4,5,6,7-tetrahydropyrazolo[1,5-a]pyrimidine-3-carboxamido)ethyl)benzoic Acid] | 6.83 |
| C[C@H](NC(=O)c1c(C(F)(F)F)nn2c1N(Cc1ccc(C(F)(F)F)cc1)CCC2)c1ccc(C(=O)O)cc1 [Compound 45, (S)-4-(1-(2-(trifluoromethyl)-4-(4-(trifluoromethyl)benzyl)-4,5,6,7-tetrahydropyrazolo[1,5-a]pyrimidine-3-carboxamido)ethyl)benzoic Acid] | 1.15 |
